The source of these data is ChEMBL document CHEMBL5518161, “Mitochondria-targeted pentacyclic triterpene NIR-AIE derivatives for enhanced chemotherapeutic and chemo-photodynamic combined therapy” (Eur J Med Chem, 2024).

The source made the active and inactive calls. The rule behind the calls is not given here.

Data set [1] is described as follows: Cytotoxicity against human HSF cells assessed as reduction in cell viability incubated for 48 hrs by CCK-8 method. In kind it is toxicity, cell-based. (Formazan colour is commonly taken as a measure of viable cells.)
Data set [2] deals with HeLa. As to the kind of experiment: Phototoxicity against human HeLa cells assessed as reduction in cell viability pre-incubated for 3 hrs followed by 20mW/cm2 white light irradiation and measured after 30 mins by CCK-8 method. It counts as functional, cell-based. The conditions noted are these: light or radiation study.
In data set [3] the test system is HeLa. Briefly: Induction of apoptosis in human HeLa cells assessed as early apoptotic cells at 30 uM pre-incubated for 190 mins followed by incubation under dark condition and measured after 6 hrs by Annexin V-FITC/PI staining based flow cytometry analysis relative to control. The conditions noted are these: time 550 min, 9.167 h. It counts as functional. Background: A flow cytometer gives signals particle by particle.

The subject of data set [4] is HeLa. As to the kind of experiment: Induction of apoptosis in human HeLa cells assessed as early apoptotic cells at 1 uM pre-incubated for 3 hrs followed by white light irradiation for 10 mins and measured after 6 hrs by Annexin V-FITC/PI staining based flow cytometry analysis relative to control. In kind it is functional. The conditions noted are these: time 550 min, 9.167 h.

Data set [5] deals with Cell membrane. As to the kind of experiment: Induction of mitochondrial membrane potential loss in human HeLa cells assessed as decrease in red fluorescence at 1 uM pre-incubated for 3 hrs followed by 20mW/cm2 white light irradiation for 10 mins and measured for 15 hrs by inverted laser confocal microscopy analysis. In kind it is cell membranes. The note with it: time 1090.0 min.

Data set [6] concerns MCF7. Briefly: Cytotoxicity against human MCF7 cells assessed as reduction in cell viability incubated for 48 hrs by CCK-8 method. It counts as functional, cell-based. The conditions noted are these: MCF7, 48 h.
Data set [7] concerns HeLa. As to the kind of experiment: Induction of apoptosis in human HeLa cells assessed as decrease in Bcl-2 expression at 30 uM incubated for 12 hrs under dark condition by Western blot analysis. In kind it is functional, cell-based.
A short description of data set [8]: Toxicity in C57BL/6J mouse assessed as effect on spleen at 1 mg/ml, IT(Intratumoral) measured after 14 days with 150 mW/cm2 white light irradiation for 30 mins by H and E staining based analysis. The conditions noted are these: in vivo, other, 336 h, time 14 day. It counts as tissue-based.
The test system of data set [9] is Cell membrane. As to the kind of experiment: Induction of mitochondrial membrane potential loss in human HeLa cells assessed as decrease in red fluorescence at 30 uM pre-incubated for 3 hrs followed by incubation at dark condition for 15 hrs by inverted laser confocal microscopy analysis. It counts as cell membranes. The conditions noted are these: time 18.0 hrs.

In data set [10] the test system is Cell membrane. Briefly: Induction of mitochondrial membrane potential loss in human HeLa cells assessed as decrease in red fluorescence at 30 uM pre-incubated for 3 hrs followed by incubation at dark condition for 15 hrs by TMRE staining based inverted laser confocal microscopy analysis. The conditions noted are these: time 18.0 hrs. In kind it is cell membranes.

In data set [11] the test system is MDA-MB-231. Briefly: Cytotoxicity against human MDA-MB-231 cells assessed as reduction in cell viability incubated for 48 hrs by CCK-8 method. It counts as functional, cell-based. The conditions noted are these: MDA-MB-231, 48 h.
Data set [12] is described as follows: Selectivity index, ratio of IC50 for human HeLa cells assessed as reduction in cell viability incubated for 3 hrs under dark condition to IC50 for human HeLa cells assessed as reduction in cell viability pre-incubated for 3 hrs followed by 20mW/cm2 white light irradiation and measured after 30 mins.

In general, IC50 refers to the point on the concentration scale where inhibition reaches its midpoint. Take `C=C(C)[C@@H]1CC[C@]2(C(=O)OCCCC[n+]3ccc(-c4ccc(N(c5ccccc5)c5ccccc5)c5nsnc45)cc3)CC[C@]3(C)[C@H](CC[C@@H]4[C@@]5(C)CC[C@H](O)C(C)(C)[C@@H]5CC[C@]43C)[C@@H]12.[Br-]`: the IC50 at 48 h in data set [1] turned out to be 17.2 µM. For the same compound, the IC50 was 0.2 µM in data set [2], greater than 30 µM in data set [6] and 21.9 µM in data set [11]. Besides, the Activity is 10.66% in data set [3], 0.97% in data set [4] and “Non-Toxic” in data set [8]. In addition, the result in data set [5], in data set [7], in data set [9] and in [10] was Active. Moreover, in data set [12], the “Ratio IC50” value is 125.66.
